Literature values, collected in publication PMC9088311, “Cyclic Thiosulfonates for Thiol-Mediated Uptake: Cascade Exchangers, Transporters, Inhibitors” (JACS Au, 2022).

Tested on: lentivirus with D614G SC2 spike protein, A549 cells overexpressing ACE2 and TMPRSS2
Settings: 50 μM; cited from earlier work

O=S1(=O)C[C@H](O)[C@H](O)CS1 (stereo in doubt) [Compound 3, (4S,5R)-4,5-dihydroxy-1,2-dithiane-1,1-dioxide]
inhibition of luciferase expression, thus SC2 lentivector entry: ≈ 60%
